Results on 1 molecule are retold here after patent US7378409B2, “Substituted cycloalkylamine derivatives as modulators of chemokine receptor activity” (Bristol-Myers Squibb Company, priority 2003, dated 2008).

The data set is described as follows: Long-term storage stability of the isolated salt. The conditions noted are these: TFA salt of the title compound; converted to free base for that reason. Type of data set: physicochemical. The method, then: Example 3a, Step 5: A solution of (1R,3R,4S)-3-butyl-N1-isopropyl-N1-methylcyclohexane-1,4-diamine (58 mg, 0.25 mmol) in methylene chloride (5 mL) was charged successively with HATU (113 mg, 0.29 mmol), 2-(5-(trifluoromethyl)-1H-indazol-3-ylamino)acetic acid (58 mg, 0.22 mmol), and N,N-diisopropylethylamine (0.22 mL, 1.24 mmol). The reaction was stirred for 16 h at RT, concentrated in vacuo, and diluted with EtOAc. The organic phase was washed successively with sat. NaHCO3, water, 1N HCl, water, and brine before being dried (sodium sulfate), filtered, and concentrated in vacuo. […] Accordingly, this material was dissolved in EtOAc and the organic phase was washed with sat. NaHCO3 and brine before being dried (sodium sulfate), filtered, and concentrated in vacuo to afford the free base of the title compound, N-((1S,2R,4R)-2-butyl-4-(isopropyl(methyl)amino)cyclohexyl)-2-(5-(trifluoromethyl)-1H-indazol-3-ylamino)acetamide. MS found: (M+H)^+=468.4.

For `CCCC[C@@H]1C[C@H](N(C)C(C)C)CC[C@@H]1NC(=O)CNc1n[nH]c2ccc(C(F)(F)F)cc12` [Example 3a, N-((1S,2R,4R)-2-butyl-4-(isopropyl(methyl)amino)cyclohexyl)-2-(5-(trifluoromethyl)-1H-indazol-3-ylamino)acetamide], the “stability to long-term storage” value was “unstable to long-term storage”.
